Source: patent US20200323790A1, “METHOD FOR TREATMENT OF ACUTE LUNG INJURY BY USE OF KIRENOL” (CHUNG SHAN MEDICAL UNIVERSITY, priority 2019, published 2020)

Experiments:
[1] = test system: glutathione peroxidase (GSH); experiment: Antioxidant enzyme activity in lung tissue: glutathione peroxidase; type: in vivo, mice; details: kirenol 3, 10, 30 mg/kg IP; vs LPS stimulated group; FIG. 8
Experimental: (§1) BALB/c mice (5-7 weeks old) are obtained from the National Laboratory Animal Center (NLAC) and maintained in the laboratory for a week in order to adapt to the environment. Then experiments are carried out as follows. The mice are divided into three groups. The control group: mice in the group are injected with normal saline by intratracheal injection (IT). The LPS stimulated group: mice in the group are treated with a 50 μL solution containing 100 μg of lipopolysaccharide (LPS) by IT for inducing ALI. The kirenol group: mice are given an intraperitoneal injection (IP) of 3 mg/kg, 10 mg/kg, and 30 mg/kg of kirenol respectively. After 30 minutes, each mouse is treated with 100 μg of LPS by IT. The dexamethasone group: mice are dosed with 1 mg/kg of dexamethasone by IP and then treated with 100 μg of LPS by IT after 30 minutes.
(§2) The mice in the respective group are killed 6 hours after LPS administration. Then use bronchoalveolar lavage (BAL) to get (Bronchoalveolar lavage fluid (BALF). And perform differential blood count, detect neutrophil activity and measure protein content in BALF. The lung tissue of the mice is used in histopathology examination, analysis of pulmonary edema, lipid peroxidation assay, and antioxidant activity analysis.
(§3) During acute lung injury, the increasing pulmonary oxidative stress easily leads to lung tissue damage. […]

[2] = test system: BALB/c mice; experiment: Neutrophils in BALF (Giemsa stain) in LPS-induced ALI mice; type: in vivo; details: kirenol 3, 10, 30 mg/kg IP; vs LPS stimulated group; FIG. 4
Experimental: as §1
(§4) The mice in the respective group are killed 6 hours after LPS administration. […]
(§5) Polymorphonuclear leucocytes and protein in the capillary flow into the alveoli while alveolar capillary barrier being damaged. Thus the integrity of alveolar capillary barrier can be evaluated by analysis of the content of polymorphonuclear leucocytes and protein in the BALF. […]

[3] = test system: BALB/c mice; experiment: Lung tissue wet/dry ratio (lung edema) in LPS-induced ALI mice; type: in vivo; details: kirenol 3, 10, 30 mg/kg IP, FIG. 2
Experimental: as §1, §2
The mice are killed and lung tissue is obtained. […] Thereby the wet/dry ratio of the lung tissue is calculated by dividing the wet weight by the dry weight.

[4] = test system: BALB/c mice; experiment: Protein content in BALF (Bradford assay) in LPS-induced ALI mice; type: in vivo; details: kirenol 3, 10, 30 mg/kg IP, FIG. 3
Experimental: as §1, §4, §5

[5] = test system: catalase (CAT); experiment: Antioxidant enzyme activity in lung tissue: CAT; type: in vivo, mice; details: kirenol 3, 10, 30 mg/kg IP; vs LPS stimulated group; FIG. 7
Experimental: as §1, §2, §3

[6] = test system: BALB/c mice; experiment: Histopathology (H&E) of lung in LPS-induced ALI mice; type: in vivo; details: LPS 100 μg IT; kirenol 3, 10, 30 mg/kg IP or dexamethasone 1 mg/kg IP 30 min before LPS; 6 h after LPS; FIG. 1
Experimental: as §1, §2
Kirenol used is obtained from ChemFaces (Catalog No. CFN98867) dissolved in Dimethyl sulfoxide (DMSO). […]

[7] = test system: superoxide dismutase (SOD); experiment: Antioxidant enzyme activity in lung tissue: SOD; type: in vivo, mice; details: kirenol 3, 10, 30 mg/kg IP; vs LPS stimulated group; FIG. 6
Experimental: as §1, §2, §3

[8] = test system: BALB/c mice; experiment: Lipid peroxidation (malondialdehyde, MDA) in lung of LPS-induced ALI mice; type: in vivo; details: kirenol 3, 10, 30 mg/kg IP; vs LPS stimulated group; FIG. 5
Experimental: as §1, §4
For evaluation of lung tissue damage, the amount of malondialdehyde (MDA), the final product of lipid peroxidation in lung, is measured. […] Lastly absorbance of the mixed solution is measured at 532 nm.

C[C@@]1(CO)C[C@@H](O)C[C@@]2(C)[C@@H]3CC[C@](C)([C@@H](O)CO)C=C3CC[C@H]12 [Kirenol]
activity of GSH (glutathione peroxidase) in lung [1]: increased in a dose dependent manner | number of neutrophils / neutrophil infiltration in alveolar cavity [2]: reduces neutrophil infiltration in alveolar cavity caused by LPS in a dose dependent manner | lung edema induced by LPS [3]: improves lung edema induced by LPS in a dose dependent fashion | wet/dry ratio of the lung tissue ([3]; vs LPS stimulated group): reduced | integrity of alveolar capillary barrier [4]: prevents damage to the integrity of alveolar capillary barrier caused by LPS in a dose dependent way | protein content in BALF ([4]; vs LPS stimulated group): lowered | activity of CAT in lung [5]: increased in a dose dependent manner | hyaline membrane formation in lung [6]: reduces hyaline membrane formation in lung and immune cell infiltration induced by LPS in a dose dependent manner | immune cell infiltration in lung [6]: reduces hyaline membrane formation in lung and immune cell infiltration induced by LPS in a dose dependent manner | activity of SOD in lung [7]: increased in a dose dependent manner | lipid peroxidation in lung (MDA) [8]: prevents lipid peroxidation caused by LPS in a dose dependent manner
